Where two headings read alike, the source gives them in different places.
Key:
Heliothis virescens = settings: against Heliothis virescens; cited from earlier work
Candida albicans = settings: against Candida albicans; cited from earlier work
[1] = system: Gram negative and Gram-positive bacteria; settings: series of Gram negative and Gram-positive bacteria; cited from earlier work
wild-type RXR (GBD:RXR) = wild-type RXR (GBD:RXR) (Homo sapiens, UniProt P19793); assay: cell-based
Text: (§1) Liquid Media: The method used for quantitation was modified from a method developed by Miller and known in the art.
(§2) The twelve plasmids rescued from the selective plates were retransformed into PJ69-4A to confirm that their phenotype is plasmid linked. The strain PJ69-4A was engineered to contain a Gal4 response element controlling expression of the LacZ gene, in addition to the ADE2 gene. […] The selection assay quantifies yeast growth occurring through transcriptional activation of the ADE2 gene, while the screen quantifies β-galactosidase activity occurring though transcriptional activation of the LacZ gene.
Three plasmids were used as controls in the screen and selection assays. […] This plasmid provides a measure of background noise in both the selection and screen assays.

[2] = molecular target: T1, RXR variant I268A; I310S; F313V; L436F (Homo sapiens, UniProt P19793, F313V/I268A/I310S/L436F); format: cell-based; settings: Yeast, L436F (first line, r10)
T1 construct: express the Gal4 DBD fused with a variant RXR LBD (GBD:RXR); expressed in transfected cells; host or cells: Saccharomyces cerevisiae PJ69-4A
Text: as §1, §2

[3] = molecular target: T2, RXR variant I268A; I310S; F313V; L436F (Homo sapiens, UniProt P19793, F313V/I268A/I310S/L436F); assay: cell-based; set-up: species or system yeast
T2 sequence (P19793 225-462 I268A/I310S/F313V/L436F): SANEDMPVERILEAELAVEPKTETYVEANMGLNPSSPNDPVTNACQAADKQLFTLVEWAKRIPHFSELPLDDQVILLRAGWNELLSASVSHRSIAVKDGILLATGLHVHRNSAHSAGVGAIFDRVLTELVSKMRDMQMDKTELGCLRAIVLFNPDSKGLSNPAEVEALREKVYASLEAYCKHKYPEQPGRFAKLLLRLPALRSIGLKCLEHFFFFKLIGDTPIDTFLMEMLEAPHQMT
Text: as §1, §2

[4] = molecular target: RXR variant I268A; A272V; I310A; F313A; L436F (Homo sapiens, UniProt P19793, A272V/F313A/I268A/I310A/L436F); settings: Yeast
Text: as §1, §2
Target sequence in this assay (P19793 227-458 I268A/A272V/I310A/F313A/L436F limits assumed): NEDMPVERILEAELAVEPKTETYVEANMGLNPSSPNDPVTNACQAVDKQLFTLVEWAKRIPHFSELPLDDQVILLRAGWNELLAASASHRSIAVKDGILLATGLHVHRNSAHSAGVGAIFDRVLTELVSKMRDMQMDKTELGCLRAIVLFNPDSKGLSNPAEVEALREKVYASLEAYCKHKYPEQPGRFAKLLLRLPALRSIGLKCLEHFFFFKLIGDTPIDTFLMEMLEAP
Target sequence in this assay (Q9Y6Q9 1-1413 partner limits assumed): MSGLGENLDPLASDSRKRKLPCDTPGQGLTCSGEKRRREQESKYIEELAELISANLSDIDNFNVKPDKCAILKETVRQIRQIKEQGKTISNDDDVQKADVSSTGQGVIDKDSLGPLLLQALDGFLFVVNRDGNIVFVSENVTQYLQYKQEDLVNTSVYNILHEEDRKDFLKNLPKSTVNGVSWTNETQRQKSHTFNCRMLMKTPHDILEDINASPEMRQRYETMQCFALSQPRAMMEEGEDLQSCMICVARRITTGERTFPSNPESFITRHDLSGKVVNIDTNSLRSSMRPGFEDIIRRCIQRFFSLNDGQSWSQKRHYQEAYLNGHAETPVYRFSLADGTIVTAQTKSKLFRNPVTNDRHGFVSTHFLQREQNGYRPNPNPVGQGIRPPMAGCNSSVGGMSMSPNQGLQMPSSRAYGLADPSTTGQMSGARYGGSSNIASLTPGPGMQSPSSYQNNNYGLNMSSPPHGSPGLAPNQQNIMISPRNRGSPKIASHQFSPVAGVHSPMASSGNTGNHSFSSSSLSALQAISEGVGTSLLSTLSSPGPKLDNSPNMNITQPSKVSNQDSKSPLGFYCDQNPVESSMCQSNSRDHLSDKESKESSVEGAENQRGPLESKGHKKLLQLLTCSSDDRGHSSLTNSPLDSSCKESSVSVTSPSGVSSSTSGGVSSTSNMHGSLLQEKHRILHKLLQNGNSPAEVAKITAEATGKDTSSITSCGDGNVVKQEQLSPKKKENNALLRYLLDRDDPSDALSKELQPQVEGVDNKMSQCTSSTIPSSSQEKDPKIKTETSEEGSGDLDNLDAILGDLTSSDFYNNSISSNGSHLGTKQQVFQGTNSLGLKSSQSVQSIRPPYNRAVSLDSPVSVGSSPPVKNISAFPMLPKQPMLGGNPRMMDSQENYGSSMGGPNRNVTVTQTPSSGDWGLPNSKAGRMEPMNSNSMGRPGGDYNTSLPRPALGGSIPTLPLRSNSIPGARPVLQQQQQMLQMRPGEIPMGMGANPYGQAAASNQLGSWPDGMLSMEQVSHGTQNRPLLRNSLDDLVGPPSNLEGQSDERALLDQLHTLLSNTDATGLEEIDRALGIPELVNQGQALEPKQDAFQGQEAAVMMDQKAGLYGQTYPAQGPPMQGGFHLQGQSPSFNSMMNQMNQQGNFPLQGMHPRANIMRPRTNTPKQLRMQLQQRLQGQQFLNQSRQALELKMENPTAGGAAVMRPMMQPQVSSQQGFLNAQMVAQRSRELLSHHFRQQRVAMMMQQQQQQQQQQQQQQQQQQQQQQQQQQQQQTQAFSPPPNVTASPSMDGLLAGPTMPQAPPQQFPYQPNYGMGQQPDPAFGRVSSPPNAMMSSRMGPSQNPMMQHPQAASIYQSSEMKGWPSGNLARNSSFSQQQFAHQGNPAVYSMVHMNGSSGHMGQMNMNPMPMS

[5] = molecular target: RXR variant I268A; I310A; F313A; L436F (Homo sapiens, UniProt P19793, F313A/I268A/I310A/L436F); settings: Yeast, relative to wild type with 10 μM 9cRA
Text: as §1, §2

[6] = molecular target: RXR variant I268A; I310M; F313A; L436T (Homo sapiens, UniProt P19793, F313A/I268A/I310M/L436T); settings: Yeast
Text: as §1, §2

[7] = molecular target: RXR variant I268L; A271V; I310L; F313L (Homo sapiens, UniProt P19793, A271V/F313L/I268L/I310L); settings: Yeast
Text: as §1, §2

[8] = molecular target: RXR variant I268L; I310M; F313V (Homo sapiens, UniProt P19793, F313V/I268L/I310M)
Text: as §1, §2

[9] = molecular target: RXR variant I268L; I310V; F313I (Homo sapiens, UniProt P19793, F313I/I268L/I310V); settings: Yeast
Text: as §1, §2

[10] = molecular target: RXR variant I268V; A271V; I310L; F313V (Homo sapiens, UniProt P19793, A271V/F313V/I268V/I310L); settings: Yeast
Text: as §1, §2

[11] = molecular target: T3, RXR variant I268V; A272V; I310L; F313M (Homo sapiens, UniProt P19793, A272V/F313M/I268V/I310L)
T3 sequence (P19793 227-462 I268V/A272V/I310L/F313M): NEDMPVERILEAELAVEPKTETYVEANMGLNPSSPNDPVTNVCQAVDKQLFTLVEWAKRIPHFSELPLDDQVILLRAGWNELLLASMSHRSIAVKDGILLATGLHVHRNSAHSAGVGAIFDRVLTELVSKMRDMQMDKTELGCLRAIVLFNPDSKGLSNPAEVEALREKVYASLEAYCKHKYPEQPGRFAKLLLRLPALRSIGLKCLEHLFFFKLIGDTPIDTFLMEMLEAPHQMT
Text: as §1, §2

[12] = molecular target: RXR variant I268V; A272V; I310M; F313S; L436M (Homo sapiens, UniProt P19793, A272V/F313S/I268V/I310M/L436M); settings: Yeast
Text: as §1, §2

[13] = molecular target: RXR variant I268V; I310V; F313S (Homo sapiens, UniProt P19793, F313S/I268V/I310V); settings: Yeast
Text: as §1, §2

wtRXR = wtRXR (Homo sapiens, UniProt P19793); assay: cell-based
Text: (§3) RLU=relative light units.
(§4) Mammalian Luciferase Assay: Performed with HEK 293 cells as previously described, and known in the art.
(§5) Five variants were chosen for testing in mammalian cell culture for comparison of the activation profiles (I268A;I310A;F313A;L436F,I268V;A272V;I310L;F313M, I268A;I310S;F313A;L436F, I268V;A272V;I310M;F313S;L436M, and I286A;I310M;F313A;L436T). The genes for these variants were removed from yeast expression plasmids and ligated into mammalian expression plasmids.

[14] = molecular target: T2, RXR variant I268A; I310S; F313V; L436F; assay: cell-based
[15] = molecular target: RXR variant I268A; I310A; F313A; L436F (Homo sapiens, UniProt P19793, F313A/I268A/I310A/L436F)
Text: as §3, §4, §5
Target sequence in this assay (P19793 whole entry I268A/I310A/F313A/L436F): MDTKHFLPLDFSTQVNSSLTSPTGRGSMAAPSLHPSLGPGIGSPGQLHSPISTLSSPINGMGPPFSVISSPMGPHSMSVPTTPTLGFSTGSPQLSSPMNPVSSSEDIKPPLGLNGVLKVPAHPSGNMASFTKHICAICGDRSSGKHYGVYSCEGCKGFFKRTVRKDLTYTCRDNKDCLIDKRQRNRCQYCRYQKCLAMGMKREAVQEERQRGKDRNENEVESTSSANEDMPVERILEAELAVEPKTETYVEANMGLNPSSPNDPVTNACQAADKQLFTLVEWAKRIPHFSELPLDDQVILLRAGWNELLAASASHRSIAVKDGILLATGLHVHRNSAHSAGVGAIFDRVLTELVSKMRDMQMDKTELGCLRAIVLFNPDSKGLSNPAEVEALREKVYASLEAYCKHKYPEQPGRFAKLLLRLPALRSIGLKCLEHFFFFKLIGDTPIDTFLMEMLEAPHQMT

[16] = molecular target: RXR variant I268A; I310M; F313A; L436T (Homo sapiens, UniProt P19793, F313A/I268A/I310M/L436T)
Text: as §3, §4, §5
Target sequence in this assay (P19793 whole entry I268A/I310M/F313A/L436T): as the sequence (P19793 whole entry I268A/I310A/F313A/L436F) above, with A310M, F436T counted along it

[17] = molecular target: RXR variant I268V; A272V; I310L; F313M (Homo sapiens, UniProt P19793, A272V/F313M/I268V/I310L); remark: listed apart in the source
Text: as §3, §4, §5

[18] = molecular target: RXR variant I268V; A272V; I310M; F313S; L436M (Homo sapiens, UniProt P19793, A272V/F313S/I268V/I310M/L436M)
Text: as §3, §4, §5

[19] = molecular target: T4, RXR variant I268A; A272V; I310A; F313A; L436F (Homo sapiens, UniProt P19793, A272V/F313A/I268A/I310A/L436F); assay: Mammalian luciferase assay in HEK 293 cells; format: cell-based
T4 construct: expressed in transfected cells; host or cells: HEK 293
Text: as §3, §4

[20] = molecular target: T5, RXR variant I268L; A271V; I310L; F313L (Homo sapiens, UniProt P19793, A271V/F313L/I268L/I310L); assay: Mammalian luciferase assay in HEK 293 cells; format: cell-based
T5 construct: expressed in transfected cells; host or cells: HEK 293
Text: as §3, §4

[21] = molecular target: T6, RXR variant Q275C;I310M;F313I (Homo sapiens, UniProt P19793, F313I/I310M/Q275C); settings: in yeast; previous best LG335 receptor Q275C;I310M;F313I; cited from earlier work
T6 construct: expressed in transfected cells; host or cells: yeast

[22] = in vivo; cited from earlier work
[23] = relative to wild type with 10 μM 9cRA
[24] = HEK 293, relative to wild type with 10 μM 9cRA

RXR variant I268L; I310M; F313V, sequence (P19793 227-458 I268L/I310M/F313V limits assumed): as the sequence (P19793 227-458 I268A/A272V/I310A/F313A/L436F limits assumed) above, with A42L, V46A, A84M, A87V, F210L counted along it
RXR variant I268L; I310M; F313V, sequence (Q9Y6Q9 1-1413 partner limits assumed): as the sequence (Q9Y6Q9 1-1413 partner limits assumed) above
wtRXR, sequence (P19793 whole entry): as the sequence (P19793 whole entry I268A/I310A/F313A/L436F) above, with A268I, A310I, A313F, F436L counted along it
RXR variant I268V; I310V; F313S, sequence (P19793 227-458 I268V/I310V/F313S limits assumed): as the sequence (P19793 227-458 I268A/A272V/I310A/F313A/L436F limits assumed) above, with A42V, V46A, A84V, A87S, F210L counted along it

C/C1=C\[C@H](C)C[C@H](C)OC(=O)C[C@H](c2ccc(O)cc2)NC(=O)[C@@H](Cc2c(Br)[nH]c3ccccc23)N(C)C(=O)[C@H](C)NC(=O)[C@@H](C)C1 [Jaspamide]
insecticidal activity (Heliothis virescens): insecticidal | fungicidal activity (Candida albicans): fungicidal activity | activity against bacteria [1]: completely inactive

CCCc1cc2c(cc1C(=O)c1ccc(C(=O)O)cc1)C(C)(C)CCC2(C)C [LG335, 4-[(3-Propyl-5,5,8,8-tetramethyl-5,6,7,8-tetrahydro-2-naphtyl)carbonyl]benzoic Acid]
EC50 (wild-type RXR (GBD:RXR)): > 10000 nM | Eff (efficacy) (wild-type RXR (GBD:RXR); Yeast, WT, maximum increase in activation relative to wild type with 10 μM 9cRA): 10% | EC50 [2]: 470 nM | Eff (efficacy) [2, 23]: 60% | EC50 ([3]; Yeast, I268A, I310S, F313V, L436F (second line, r11)): 430 nM | Emax ([3]; read-out: Eff (efficacy)): 50% | EC50 [4]: 530 nM | Eff (efficacy) [4, 23]: 30% | Eff (efficacy) [5]: 70% | EC50 [6]: 610 nM | Eff (efficacy) [6, 23]: 10% | EC50 [7]: 530 nM | Eff (efficacy) [7, 23]: 20% | activity in the screen assay ([8]; I268L;I310M;F313V, high basal activity): increase activity at micromolar concentrations | EC50 ([8]; Yeast, I268L, I310M, F313V): 610 nM | Eff (efficacy) ([8]; Yeast, I268L, I310M, F313V, relative to wild type with 10 μM 9cRA): 20% | EC50 [9]: >2000 nM | Eff (efficacy) [9, 23]: 10% | EC50 [10]: 650 nM | Eff (efficacy) [10, 23]: 10% | Eff (efficacy) ([11]; Yeast, I268V, A272V, I310L, F313M, relative to wild type with 10 μM 9cRA): 60% | EC50 ([11]; in yeast, I268V;A272V;I310L;F313M): 40 nM | improvement in EC50 over the previous best LG335 receptor, Q275C;I310M;F313I ([11]; in yeast, LG335-I268V;A272V;I310L;F313M ligand receptor pair): 25 fold | EC50 [12]: 680 nM | Eff (efficacy) [12, 23]: 30% | EC50 [13]: 440 nM | Eff (efficacy) [13, 23]: 10% | EC50 (wtRXR): 300 nM | Eff (efficacy) (wtRXR; HEK 293, WT, relative to wild type with 10 μM 9cRA): 10% | Emax ([14]; HEK293, read-out: Eff (efficacy)): 20% | EC50 ([14]; HEK 293, I268A, I310S, F313V, L436F (second line, r11)): 690 nM | EC50 ([15]; HEK 293): 30 nM | Eff (efficacy) [15, 24]: 50% | EC50 ([16]; HEK 293): 140 nM | Eff (efficacy) [16, 24]: 20% | EC50 ([17]; HEK 293): 1 nM | Eff (efficacy) [17, 24]: 30% | EC50 ([18]; HEK 293): 180 nM | Eff (efficacy) [18, 24]: 30% | EC50 [19]: 1 nM | EC50 [20]: 1 nM | EC50 [21]: 1000 nM

CO/C(=C/C(=O)N(C)C(Cc1ccccc1)c1nccs1)CC(C)C(Cl)(Cl)Cl (stereo not shown) [Barbamide]
molluscicidal activity [22]: potent mollucuscidal activity

Reference: patent publication US8492088B2, “Engineering enzymes through genetic selection” (priority 2007, dated 2013)
